The text below walks through data of patent US12428415B2, “Matriptase 2 inhibitors and uses thereof” (Disc Medicine, Inc., priority 2018, dated 2025).

For the first experiment, the target named is T1, Human Recombinant Matriptase 2 (Homo sapiens, UniProt Q8IU80).
T1 construct: purchased Enzo Life Sciences (an in-house preparation was also used) ALX-201-752-1
T1 sequence (Q8IU80 1-811): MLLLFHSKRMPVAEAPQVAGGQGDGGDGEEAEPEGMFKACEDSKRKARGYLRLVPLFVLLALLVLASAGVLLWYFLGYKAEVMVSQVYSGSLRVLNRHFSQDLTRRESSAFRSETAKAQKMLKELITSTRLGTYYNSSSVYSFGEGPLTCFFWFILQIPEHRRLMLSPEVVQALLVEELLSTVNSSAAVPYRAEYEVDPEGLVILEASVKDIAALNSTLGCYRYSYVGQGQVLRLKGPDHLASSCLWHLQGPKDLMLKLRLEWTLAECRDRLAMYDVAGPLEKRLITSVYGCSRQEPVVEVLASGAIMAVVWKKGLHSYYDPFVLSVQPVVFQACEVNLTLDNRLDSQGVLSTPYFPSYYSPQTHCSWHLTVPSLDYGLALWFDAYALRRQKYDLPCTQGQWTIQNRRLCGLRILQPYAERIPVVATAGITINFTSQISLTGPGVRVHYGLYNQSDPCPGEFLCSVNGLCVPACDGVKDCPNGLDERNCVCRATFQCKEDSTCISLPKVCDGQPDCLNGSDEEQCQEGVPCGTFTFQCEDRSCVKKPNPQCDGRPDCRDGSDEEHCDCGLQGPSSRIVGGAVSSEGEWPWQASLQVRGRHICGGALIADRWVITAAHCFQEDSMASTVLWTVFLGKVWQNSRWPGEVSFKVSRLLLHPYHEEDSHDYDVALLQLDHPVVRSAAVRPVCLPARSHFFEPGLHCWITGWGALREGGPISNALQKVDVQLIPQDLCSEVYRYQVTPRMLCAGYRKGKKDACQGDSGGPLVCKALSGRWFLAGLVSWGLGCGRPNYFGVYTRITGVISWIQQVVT
Briefly: Matriptase 2 fluorescence based inhibition assay, Method A (100 mM TRIS pH 9, 1 mg/mL BSA). Particulars: 1 uM; Assay Used A; read-out: Mar-2 % inhibition at 1 uM. The experiment is classed as biochemical. How it is done:
Test compounds were evaluated for their potential to inhibit Human Recombinant Matriptase 2 (in-house and commercial protein from Enzo Life Sciences—cat log -ALX-201-752-1) using fluorescence based assay. The concentration of Recombinant Matriptase 2 and the substrate used in the assay was: 7 nM (commercial) and 15 nM (Inhouse Matriptase 2) and 100 μM (Boc-Gln-Ala-Arg-7-amido-4-methyl coumarin hydrobromide—Cat log: B4153-Sigma) respectively. The assay buffer used was 100 mM TRIS pH 9, 1 mg/mL BSA. The assay was performed using 384 well black flat bottom plate from grenier (Cat log: 781076) at 25° C. The enzyme and compound was preincubated for 30 mins, plate was read 60 mins after substrate addition at wavelength Ex: 360/Em: 480 nm. The final assay volume was 20 μl. Stock solution of compounds were initially prepared in DMSO and appropriate dilutions were made for screening and IC50 determination (final DMSO conc in the assay was 1%). All the measurements were carried out using the Spectramax M5, Molecular devices. The compounds were screened at 1 and 10 μM concentration and IC50 was determined for the interested compounds.
To determine IC50 values, dose response curves were generated by plotting percentage inhibition as a function of inhibitor concentration and the data was fitted to sigmoidal non-linear regression equation (variable slope) using Graph Pad prism software V7.
Turning to `N=C(N)c1ccc2cc(C(=O)Nc3ccc(N4CCCCC4)cc3)n(Cc3ccc(C(N)=O)cc3)c2c1` [Compound I-102], the inhibition at 1 µM is 0 to 25%. With `N=C(N)c1ccc2cc(C(=O)N[C@H]3CC[C@H](N)CC3)n(CS(=O)(=O)c3ccccc3)c2c1` [Compound I-39], the inhibition at 1 µM lay within 25 to 50%.

On to `C=CCOc1cccc(NC(=O)c2cc3ccc(C(=N)N)cc3n2Cc2ccc(C(N)=O)cc2)c1` [Compound I-139], for which the inhibition at 1 µM lay within 0 to 25%. As for `N=C(N)c1ccc2cc(C(=O)Nc3ccc4c(c3)CCC4)n(Cc3ccc(C(N)=O)cc3)c2c1` [Compound I-64], the inhibition at 1 µM lay within 0 to 25%. The same measure, in the same setting: under `N=C(N)c1ccc2cc(C(=O)NC3CCC(N4CCCC4)CC3)n(Cc3ccc(C(N)=O)cc3)c2c1` (stereo not drawn) [Compound I-188] stands 25 to 50%; under `CC(C)(NC(=O)c1cc2ccc(C(=N)N)cc2n1Cc1ccc(C(N)=O)cc1)c1ccc(Cl)cc1` [Compound I-109], 0 to 25%. Same read-out and setting: under `C[C@@H](NC(=O)c1cc2ccc(C(=N)N)cc2n1Cc1ccc(C(N)=O)cc1)c1ccc(F)c(Cl)c1` [Compound I-113] stands 0 to 25%; under `N=C(N)c1ccc2cc(C(=O)Nc3ccc(F)c(F)c3)n(Cc3ccc(C(N)=O)cc3)c2c1` [Compound I-87], 0 to 25%; under `N=C(NC(=O)OC1CCCCC1)c1ccc2cc(C(=O)Nc3cccc(N4CCCC4)c3)n(Cc3ccc(C(N)=O)cc3)c2c1` [Compound I-164], 0 to 25%. For the molecule `N=C(N)c1ccc2cc(C(=O)Nc3ccc(C(=O)N4CC[C@H](F)C4)cc3)n(Cc3ccc(C(N)=O)cc3)c2c1` [Compound I-106], the inhibition at 1 µM lay within 0 to 25%.

Regarding `N=C(N)c1ccc2cc(C(=O)NC3CCN(CCCN)CC3)n(Cc3ccc(C(F)(F)F)cc3)c2c1` [Compound I-6, N-(1-(3-Aminopropyl)piperidin-4-yl)-6-carbamimidoyl-1-(4-(trifluoromethyl)benzyl)-1H indole-2-carboxamide], the inhibition at 1 µM fell in the range of 25 to 50%. On the same count and under the same terms, under `CCOC(=O)NC(=N)c1ccc2cc(C(=O)Nc3cccc(N4CCCC4)n3)n(Cc3ccc(C(N)=O)cc3)c2c1` [Compound I-183, Ethyl ((1-(4-carbamoylbenzyl)-2-((6-(pyrrolidin-1-yl)pyridin-2-yl)carbamoyl)-1H-indol-6-yl)(imino)methyl)carbamate] stands 0 to 25%.

`N=C(N)c1ccc2cc(C(=O)Nc3cccc(C(N)=O)c3)n(CCc3ccccc3)c2c1` [Compound I-26]: the inhibition at 1 µM lay in the range of 0 to 25%. On the same count and under the same terms, under `N=C(N)c1ccc2cc(C(=O)Nc3cccc(F)c3)n(CCS(=O)(=O)c3ccccc3)c2c1` [Compound I-41] stands 0 to 25%.

Turning to `N=C(N)c1ccc2cc(C(=O)NC[C@H]3CCCNC3)n(CCS(=O)(=O)c3ccccc3)c2c1` [Compound I-51], the inhibition at 1 µM lay within 25 to 50%. On the same count and under the same terms, under `C[C@H](NC(=O)c1cc2ccc(C(=N)N)cc2n1Cc1ccc(C(N)=O)cc1)c1ccc(Cl)cc1` [Compound I-98] stands 0 to 25%; under `N=C(N)c1ccc2cc(C(=O)Nc3cccc(C(F)(F)F)c3)n(Cc3ccc(C(N)=O)cc3)c2c1` [Compound I-60], 0 to 25%; under `N=C(N)c1ccc2cc(C(=O)Nc3cccc(F)c3)n(Cc3ccc(C(N)=O)cc3)c2c1` [Compound I-62], 0 to 25%. As for `N=C(N)c1ccc2cc(C(=O)N[C@H]3CC[C@H](N)CC3)n(CCc3ccc(F)cc3)c2c1` [Compound I-30], the inhibition at 1 µM was 25 to 50%. Same read-out and setting: to `Cc1cncc(NC(=O)c2cc3ccc(C(=N)N)cc3n2Cc2ccc(C(N)=O)cc2)c1` [Compound I-175] belongs 25 to 50%; to `N=C(N)c1ccc2c(N)c(C(=O)N[C@H]3CC[C@H](N)CC3)n(CCc3ccc(C(F)(F)F)cc3)c2c1` [Compound I-33, 3-Amino-N-((1r,4r)-4-aminocyclohexyl)-6-carbamimidoyl-1-(4-(trifluoromethyl)-phenethyl)-1H-indole-2-carboxamide], 0 to 25%.

For `CSc1cccc(NC(=O)c2cc3ccc(C(=N)N)cc3n2Cc2ccc(C(N)=O)cc2)c1` [Compound I-68], the inhibition at 1 µM fell in the range of 0 to 25%.

Staying with this experiment, now noted: at 1 uM; Assay Used = A; read-out: Mar-2 % inhibition at 1 uM.
As for `N=C(N)c1ccc2cc(C(=O)N3CCC(CCN)CC3)n(Cc3cccc(Oc4ccccc4)c3)c2c1` [Compound I-321], the inhibition at 1 µM lay within 25 to 50%. Same read-out and setting: under `CC(C)c1ccc(Cn2c(C(=O)N3CCC(F)(F)C3)cc3ccc(C(=N)N)cc32)cc1` [Compound I-294] stands 0 to 25%; under `N=C(N)c1ccc2cc(C(=O)N[C@H]3CC[C@H](N)CC3)n(Cc3cccc(N)c3)c2c1` [Compound I-256, 1-(3-Aminobenzyl)-N-((1r,4r)-4-aminocyclohexyl)-6-carbamimidoyl-1H-indole-2-carboxamide], 25 to 50%; under `CC1CCC(NC(=O)c2cc3ccc(C(=N)N)cc3n2Cc2ccc(C(=O)NCCO)cc2)CC1` (stereo not drawn) [Compound I-223, 6-Carbamimidoyl-1-(4-((2-hydroxyethyl)carbamoyl)benzyl)-N-(4-methylcyclohexyl)-1H-indole-2-carboxamide], 0 to 25%.

Regarding `NC(=O)c1ccc2cc(C(=O)N3CCc4ccccc4C3)n(Cc3ccc(-c4ccccc4)cc3)c2c1` [Compound I-394, 1-([1,1′-Biphenyl]-4-ylmethyl)-2-(1,2,3,4-tetrahydroisoquinoline-2-carbonyl)-1H-indole-6-carboxamide], the inhibition at 1 µM is 0 to 25%. Same read-out and setting: to `CNC(=O)c1ccc(Cn2c(C(=O)NC3CCC(C)CC3)cc3ccc(C(=N)N)cc32)cc1` (stereo not drawn) [Compound I-220, 6-Carbamimidoyl-1-(4-(methylcarbamoyl)benzyl)-N-(4-methylcyclohexyl)-1H-indole-2-carboxamide] belongs 0 to 25%. Still for that read-out and setting: to `N=C(N)c1ccc2cc(C(=O)N[C@H]3CC[C@H](N)CC3)n(Cc3cccc(Oc4ccccc4)c3)c2c1` [Compound I-240] belongs 50 to 75%; to `N=C(N)c1ccc2cc(C(=O)NCC3CCCCC3)n(Cc3ccc(C(N)=O)cc3F)c2c1` [Compound I-227, 6-Carbamimidoyl-1-(2-Fluoro-4-carbamoyl-benzyl)-N-(cyclohexylmethyl)-1H-indole-2-carboxamide], 0 to 25%.

In the case of `N=C(N)c1ccc2cc(C(=O)N3CCC(CF)CC3)n(Cc3ccc(OC(F)(F)F)cc3)c2c1` [Compound I-291], the inhibition at 1 µM was 0 to 25%. With `N=C(N)c1ccc2cc(C(=O)NC34CC5CC(CC(C5)C3)C4)n(Cc3ccc(C(N)=O)cc3)c2c1` [Compound I-200], the inhibition at 1 µM lay in the range of 0 to 25%.

In the case of `CC[C@@H](CO)NC(=O)c1cc2ccc(C(=N)N)cc2n1Cc1ccc(C(N)=O)cc1` [Compound I-209], the inhibition at 1 µM lay in the range of 0 to 25%. With `N=C(N)NCCCNC(=O)C1CCN(C(=O)c2cc3ccc(C(=N)N)cc3n2Cc2ccc(C(F)(F)F)cc2)CC1` [Compound I-359, 1-(6-Carbamimidoyl-1-(4-(trifluoromethyl)benzyl)-1H-indole-2-carbonyl)-N-(3-guanidinopropyl)-piperidine-4-carboxamide], the inhibition at 1 µM lay within 25 to 50%. Same read-out and setting: to `N=C(N)c1ccc2cc(C(=O)N3CCC(F)(F)C3)n(Cc3ccc(Oc4ccccc4)cc3)c2c1` [Compound I-314] belongs 0 to 25%; to `NC(=O)c1ccc(Cn2c(C(=O)Nc3ccc(N4CCCC4)cc3)cc3ccc(/C(N)=N/O)cc32)cc1` [Compound I-268, 1-(4-Carbamoylbenzyl)-6-(N′-hydroxycarbamimidoyl)-N-(4-(pyrrolidin-1-yl)phenyl)-1H-indole-2-carboxamide], 0 to 25%; to `N=C(N)c1ccc2cc(C(=O)N3CCC(CF)CC3)n(Cc3ccc(NC(=O)CCN)cc3)c2c1` [Compound I-377], 0 to 25%. On the same count and under the same terms, under `N=C(N)c1ccc2cc(C(=O)N3CCC(F)(F)C3)n(Cc3ccc(C(=O)NCCN)cc3)c2c1` [Compound I-392] stands 0 to 25%; under `N=C(N)c1ccc2c(Cl)c(C(=O)N3CCC(F)(F)C3)n(Cc3ccc(C(N)=O)cc3)c2c1` [Compound I-354], 0 to 25%.

A word on the inhibition: it is the percentage by which the read-out fell short of the control.
